Source: patent US20080261812A1, “Pesticidal Mixtures” (BASF SE, priority 2005, published 2008)
Like-named read-outs stand apart in the source and are kept apart here.

Test system: southern armyworm (Spodoptera eridania) 3rd-instar larvae
Assay: Laboratory bioassay with southern armyworm larvae on dip-treated lima bean leaves
Type: in vivo
Settings: foliar, 120 h, read-out: % Mortality Observed
Text: Serial dilutions of technical grade insecticides were made in 1:1 acetone:water diluent. Lima bean leaves were dipped into treatment solutions and allowed to air-dry. A single treated leaf was placed topside-up onto water-moistened filter paper in plastic Petri dishes, and then seven 3rd-instar southern armyworm (Spodoptera eridania) larvae were placed onto each leaf. Dishes were covered with a plastic lid to contain larvae. Each treatment was replicated 4 times (1 replicate=1 Petri dish). Following treatment application, infested Petri dishes were held in the laboratory under fluorescent lighting at 26° C. Numbers of live and dead larvae were counted in each dish at 5 days after treatment (DAT), and percent mortality was calculated for each treatment.
To determine if the insecticidal mixture was synergistic, Limpel's formula was used:
E=Expected % mortality of the mixture X=% mortality of compound X, as measured independently Y=% mortality of compound Y, as measured independently
Synergism was evident if the % observed mortality for the mixture was greater than the % expected mortality.

Compound: N#Cc1ccc(CC(=NNC(=O)Nc2ccc(OC(F)(F)F)cc2)c2cccc(C(F)(F)F)c2)cc1 [Metaflumizone, metaflumizone]
- mortality at 0.6 ppm (single insecticide, dose concentration 0.6 ppm, leaf dip, 5 DAT, 3rd-instar larvae): 0%
- mortality at 1 ppm (single insecticide, dose concentration 1.0 ppm, leaf dip, 5 DAT, 3rd-instar larvae): 7%

Compound: FC(F)(F)c1ccc(OCCCOc2c(Cl)cc(OCC=C(Cl)Cl)cc2Cl)nc1 [Pyridalyl, 2,6-dichloro-4-(3,3-dichloroallyloxy)phenyl 3-[5-(trifluoromethyl)-2-pyridyloxy]propyl ether]
- mortality at 0.6 ppm: 10%
